# Data published in article PMC6897945, “CytA, a reductase in the cytorhodin biosynthesis pathway, inactivates anthracycline drugs in Streptomyces” (Communications Biology, 2019).
# Read-outs that look alike come from different tables or passages of the source.
# What was measured:
# B. subtilis BS01 = assay: Antibacterial activity, broth dilution MIC; type: cell-based; conditions: Bacillus subtilis
# Description: (§1) The antibacterial activities of compounds 1–13 were assessed using twofold serial dilutions of antibacterial agents in MH broth, according to previously reported standard methods provided by Clinical and Laboratory Standards Institute (CLSI)[30]. These compounds were tested for their antibacterial activities against Bacillus subtilis BS01, Staphyloccocus aureus ATCC 29213, Staphyloccocus aureus 745524, Bacillus thuringiensis BT01, and Enterococcus faecalis ATCC 29212 using a broth dilution method.
# B. thuringiensis BT01 = assay: Antibacterial activity, broth dilution MIC; type: cell-based; conditions: Bacillus thuringiensis
# Description: as §1
# E. faecalis ATCC 29212 = assay: Antibacterial activity, broth dilution MIC; type: cell-based; conditions: Enterococcus faecalis
# Description: as §1
# [1] = tested on: Staphylococcus aureus 745524; assay: Antibacterial activity, broth dilution MIC; type: cell-based
# Description: as §1
# [2] = tested on: Staphylococcus aureus ATCC 29213; assay: Antibacterial activity, broth dilution MIC; type: cell-based
# Description: as §1
# [3] = Cytotoxic activity, MTT method; type: cell-based; conditions: human
# Excerpt: (§2) All data were obtained in triplicate and are presented as means.
# [4] = tested on: A549 human lung cancer cell line; assay: Cytotoxic activity, MTT method; type: cell-based; conditions: A549, read-out: Cytotoxic activities IC50, A549
# Excerpt: as §2
# [5] = tested on: HeLa human cervical carcinoma cell line; assay: Cytotoxic activity, MTT method; type: cell-based; conditions: read-out: Cytotoxic activities IC50, HeLa
# Excerpt: as §2
# [6] = tested on: HepG2 human hepatocellular carcinoma cell line; assay: Cytotoxic activity, MTT method; type: cell-based; conditions: HepG2, read-out: Cytotoxic activities IC50, HepG2
# Excerpt: as §2
# [7] = tested on: MCF-7 human breast adenocarcinoma cell line; assay: Cytotoxic activity, MTT method; type: cell-based; conditions: MCF7, read-out: Cytotoxic activities IC50, MCF-7
# Excerpt: as §2
# [8] = tested on: MDA-MB-231 human triple negative breast adenocarcinoma cell line; assay: Cytotoxic activity, MTT method; type: cell-based; conditions: MDA-MB-231, read-out: Cytotoxic activities IC50, MDA-MB-231
# Excerpt: as §2
# [9] = tested on: MDA-MB-468 human triple negative breast adenocarcinoma cell line; assay: Cytotoxic activity, MTT method; type: cell-based; conditions: MDA-MB-468, read-out: Cytotoxic activities IC50, MDA-MB-468
# Excerpt: as §2
# [10] = tested on: RKO human colorectal carcinoma cell line; assay: Cytotoxic activity, MTT method; type: cell-based; conditions: read-out: Cytotoxic activities IC50, RKO
# Excerpt: as §2
# CytA = assay: Enzyme kinetics of CytA (formation of deglycosylation products, anaerobic); type: biochemical, Streptomyces sp. SCSIO 1666; conditions: substrate of CytA; 0.5 μM CytA, 20 μM NADH, anaerobic
# Description: Enzymatic reactions were carried out under anaerobic conditions in an anaerobic workstation (Don Whitley Scientific A45) containing a gas phase of N2/H2/CO2 (80:10: 10%, by vol.). ^1H, ^13C, and 2D (COSY, HMQC, HMBC and NOESY) NMR spectra were recorded at 25 °C with an Avance 700 MHz spectrometer instruments (Bruker). High-resolution mass spectra were obtained with a Maxis quadrupole-time-of-flight mass spectrometer (Bruker).
# To validate the in vitro biochemical activities of CytA, we overexpressed and purified this enzyme as a soluble N-terminally His6-tagged protein from E. coli (Fig. 2a). Tris-Cl buffer was made O2 free by boiling, followed by cooling under N2 flow; NADH stock solution (dissolved in Tris-Cl), substrate stock solution (dissolved in DMSO), and enzyme solution (dissolved in Tris-Cl supplemented with 10% glycerin) were subjected to O2 eliminating process in the anaerobic workstations for at least two cycles (40 min for one cycle). CytA enzymatic activity was tested in 50 μL volume containing 50 mM Tris-Cl (pH 8.0), 25 μM substrate, 0.5 μM CytA, and 20 μM NADH, at 37 °C for 30 min. The reaction was quenched with the addition to 2 volumes MeOH. After centrifugation to remove protein, supernatants were analyzed with Agilent HPLC equipment using a Phenomenex Prodigy ODS column S5 (150 × 4.60 mm, 5 μ) and UV detection at 254 and 500 nm. Samples were eluted with a gradient elution of phase A containing 0.1% TFA in ddH2O and phase B containing 100% acetonitrile, at a flow rate of 1 mL/min.
# Kinetic analyses of CytA with putative substrates 6–10, daunorubicin, doxorubicin, idarubicin, epirubicin and pirarubicin, involved a reaction volume of 20 μL consisting of 50 mM Tris-Cl (pH 8.0), 0.5 μM CytA, 20 μM NADH, […]
# All assays were performed in triplicate and Km and Vmax values were calculated on the basis of curve fitting to the Michaelis-Menten equation: v = Vmax *[S]/(Km + [S]) (Supplementary Fig. 7).
# For kinetics of CytA, Origin 9.0 (OriginLab Co.) was used to analyze on the basis of curve fitting to the Michaelis-Menten equation. Experiments were performed in triplicate independently. For antibacterial activity, experiments were performed in triplicate using 96-well plates.
# [11] = B. subtilis BS01, triplicate, read-out: MIC values, BS
# [12] = B. thuringiensis BT01, triplicate, read-out: MIC values, BT
# [13] = ATCC29212, E. faecalis ATCC 29212, triplicate, read-out: MIC values, EF
# [14] = Staphylococcus aureus 745524, triplicate, read-out: MIC values, SA2
# [15] = ATCC29213, Staphylococcus aureus ATCC 29213, triplicate, read-out: MIC values, SA1
# [16] = ATCC29212, read-out: MIC values, EF
# [17] = Staphylococcus aureus, 745524, read-out: MIC values, SA2
# [18] = Staphylococcus aureus, ATCC29213, read-out: MIC values, SA1
# [19] = Huvec-12 normal cell line, read-out: Cytotoxic activities IC50, Huvec-12
# [20] = L02 normal cell line, read-out: Cytotoxic activities IC50, L02
SMILES,MIC (B. subtilis BS01; [11]) [µg/mL],MIC (B. thuringiensis BT01; [12]) [µg/mL],MIC (E. faecalis ATCC 29212; [13]) [µg/mL],"MIC [1, 14] [µg/mL]","MIC [2, 15] [µg/mL]","IC50 [3, 19] [µM]","IC50 [3, 20] [µM]",IC50 [4] [µM],IC50 [5] [µM],IC50 [6] [µM],IC50 [7] [µM],IC50 [8] [µM],IC50 [9] [µM],IC50 [10] [µM],further results
CC[C@@]1(O)CCc2c(O)c3c(c(O)c2[C@H]1O)C(=O)c1cccc(O)c1C3=O [Compound 13],> 32,> 32,> 32,> 32,> 32,,,,,,,,,,
"CC[C@@]1(O)CCc2c(O)c3c(c(O)c2[C@H]1O[C@H]1C[C@H](N(C)C)[C@H](O)[C@H](C)O1)C(=O)c1cccc(O)c1C3=O [Compound 5, iremycin]",,,,,,13.5,6.93,11.8,9.99,10.2,10.7,20.3,29.3,15.2,"MIC (B. subtilis BS01; BS01, read-out: MIC values, BS): 8 µg/mL; MIC (B. thuringiensis BT01; BT01, read-out: MIC values, BT): 16 µg/mL; MIC (E. faecalis ATCC 29212; [16]): 8 µg/mL; MIC [1, 17]: 8 µg/mL; MIC [2, 18]: 8 µg/mL"
"CC[C@@]1(O)CCc2c(O)c3c(c(O)c2[C@H]1O[C@H]1C[C@H](N(C)C)[C@H](O[C@H]2CC[C@H](O[C@H]4CC[C@H](O)[C@H](C)O4)[C@H](C)O2)[C@H](C)O1)C(=O)c1cccc(O)c1C3=O [Compound 3, cosmomycin A]",0.5,0.25,0.06,0.125,0.25,0.31,0.42,0.032,0.15,0.023,0.82,1.36,0.81,0.083,
"COc1cccc2c1C(=O)c1c(O)c3c(c(O)c1C2=O)C[C@@](O)(C(=O)CO)C[C@@H]3O[C@H]1C[C@H](N)[C@H](O[C@@H]2CCCCO2)[C@H](C)O1 [Compound 26, pirarubicin, reference compound]",,,,,,,,,,,,,,,Km (CytA): 49.3 µM; kcat (CytA): 0.0123 s⁻¹
"CN[C@H](CC(C)C)C(=O)N[C@H]1C(=O)N[C@@H](CC(N)=O)C(=O)N[C@H]2C(=O)N[C@H]3C(=O)N[C@H](C(=O)N[C@H](C(=O)O)c4cc(O)cc(O)c4-c4cc3ccc4O)[C@H](O)c3ccc(c(Cl)c3)Oc3cc2cc(c3O[C@@H]2O[C@H](CO)[C@@H](O)[C@H](O)[C@H]2O[C@H]2C[C@](C)(N)[C@H](O)[C@H](C)O2)Oc2ccc(cc2Cl)[C@H]1O [Van, Vancomycin, reference compound]",,,,,,,,,,,,,,,"MIC (B. subtilis BS01; BS01, read-out: MIC values, BS): 0.5 µg/mL; MIC (B. thuringiensis BT01; BT01, read-out: MIC values, BT): 0.5 µg/mL; MIC (E. faecalis ATCC 29212; [16]): 0.25 µg/mL; MIC [1, 17]: 1 µg/mL; MIC [2, 18]: 0.5 µg/mL"
CC[C@@]1(O)CCc2c(O)c3c(c(O)c2C1)C(=O)c1cccc(O)c1C3=O [Compound 12],> 32,> 32,> 32,> 32,> 32,,,,,,,,,,
"CC[C@]1(O)Cc2c(O)c3c(c(O)c2[C@@H](O[C@H]2C[C@H](N(C)C)[C@H](O)[C@H](C)O2)C1)C(=O)c1c(O)cccc1C3=O [Compound 8, 10-decarbomethoxy-ε-rhodomycin]",8,8,4,8,4,6.92,19.8,6.24,1.31,1.99,21.1,7.65,16.8,3.28,Km (CytA): 12.7 µM; kcat (CytA): 0.00283 s⁻¹
